Several values for one entry are separate records, joined by “and”; a condition that tells them apart may be missing. Equal entries are not always repeated.
Columns and labels:
[1] = target: human recombinant α-syn fibrils (Homo sapiens, UniProt P37840); assay: In vitro competition binding assay against [3H]MODAG-001 on α-syn fibrils; details: for Ki: competition against 1 nM [3H]MODAG-001, α-syn fibrils 50 nM, mean Ki ± SEM; for binding affinity to α-syn fibrils (in words): competition against [3H]MODAG-001; for selectivity for α-syn over Aβ: ratio of Ki Aβ to Ki α-syn fibrils
Method: (§1) The APT library underwent in vitro testing to evaluate its binding affinity to human recombinant α-syn fibrils. Promising compounds were further tested on Aβ fibrils. […] Since the DPP and APT class of compounds share similarities, the APT library was tested in a competition binding assay with [^3H]MODAG-001 to determine its relative binding affinity and inhibition constant (Ki). The binding assay measured the displacement of the radioligand by increasing concentrations of competitor compounds, using fixed concentrations of fibrils and radioligand.
(§2) The dissociation constant (Kd) values of [^3H]MODAG–001 for human recombinant α-syn and synthetic human Aβ1–42 fibrils have previously been determined using saturation binding assays.[30] To determine the relative binding affinity (inhibition constant, Ki) of test compounds, competition binding assays of [^3H]MODAG-001 were performed. […] Human recombinant α-syn (50 nM) and synthetic human Aβ1–42 fibrils (1 μM) diluted in PBS (Gibco DPBS, no calcium, no magnesium, Thermo Fisher Scientific, Waltham, MA, USA) were incubated with increasing concentrations of test compounds (5 pM to 10 μM) against 1 nM [^3H]MODAG–001 in 30 mM Tris–HCl, 0.1% bovine serum albumin, and 0.05% Tween20 in 96-well micro test low-binding plates (ratiolab GmbH, Dreieich, Germany) to a total volume of 200 μL/well. Plates were incubated on a shaker (MaxQ 6000, Thermo Fisher Scientific Inc., Marietta, OH, USA) at 50 rpm for 2 h at 37 °C, covered by removable sealing tapes (PerkinElmer, Waltham, MA, USA). Vacuum filtration and read-out were performed as previously reported (Kuebler, Buss et al. 2021). Briefly, a glass fiber Filtermat B (PerkinElmer, Waltham, MA, USA) incubated with 0.5% polyethylenimine (PEI; Sigma-Aldrich Chemie GmbH, Taufkirchen, Germany) for 30 min at 4 °C before filter harvesting was used with a FilterMate Harvester (PerkinElmer, Waltham, MA, USA). Melt-on scintillator sheets (MeltiLex B/HS, PerkinElmer, Waltham, MA, USA) were molten onto dried filters. Accumulation of tritium was counted in a liquid scintillation Wallac MicroBeta TriLux counter (PerkinElmer, Waltham, MA, USA) at 2 min per well. Radioactivity in counts per minute for each concentration of the test compound was normalized to the radioactivity obtained in the absence of the test compound for conversion to percentage binding of the reference tracer. The resulting values were plotted against increasing concentrations of the test compounds. Data points were fitted using nonlinear regression analysis in GraphPad Prism (GraphPad Software, Inc., Version 8.4.0, La Jolla, CA, USA). The binding curve for [^3H]MODAG-001 saturation assay on α-syn fibrils is reported in the Supporting Information (Figure S6).

[2] = target: T1, synthetic human Aβ1–42 fibrils (Homo sapiens, UniProt P05067); assay: In vitro competition binding assay against [3H]MODAG-001 on Aβ1–42 fibrils; details: for Ki: competition against 1 nM [3H]MODAG-001, Aβ1–42 fibrils 1 μM, mean Ki ± SEM
T1 construct: Synthetic lyophilized human Aβ1–42 peptide; purchased EMC Microcollections GmbH (Tuebingen, Germany); host or cells: chemical synthesis
Method: as §1
α-Syn fibrils were generated as the previously reported method.[30] The generation of Aβ1–42 fibril was adapted from Bagchi et al. and previously described by Kuebler et al.[16],[31] Synthetic lyophilized human Aβ1–42 peptide with >90% purity purchased from EMC Microcollections GmbH (Tuebingen, Germany) was dissolved in dimethyl sulfoxide (DMSO; 5 mg in 221.5 μL). Deionized water (4.1 mL) and 1 M Tris–HCl (111 μL, pH 7.6) were added to obtain a final monomeric concentration of 250 μM. Aggregation was induced by incubating the monomers in Eppendorf Thermomixer at 37 °C with shaking at 800 rpm for 72 h. Generated fibrils were sonicated for 3 min in a water bath (Elmasonic S 60H, Elma Schmidbauer GmbH, Singen, Germany). The final products were aliquoted, frozen on dry ice, and stored at −80 °C until use. Aβ1–42 fibril quality was evaluated via thioflavin (ThT) fluorescence and radioligand saturation assay with [^3H]PiB and [^3H]MODAG-001.
as §2

α-synuclein aggregates = target: α-synuclein aggregates; design: method as in PMID 34577548; details: literature ligands of Figure 1; read-out: Ki α-syn; cited from earlier work
Aβ1-42 = target: Aβ1-42; design: method as in PMID 34577548; details: literature ligands of Figure 1; cited from earlier work
Aβ1-42 fibrils = target: Aβ1-42 fibrils; design: method as in PMID 33369690; details: saturation binding, recombinant fibrils; read-out: Kd Aβ1-42 (reported); cited from earlier work
α-syn fibrils = target: α-syn fibrils; design: method as in PMID 33369690; details: saturation binding, recombinant fibrils; cited from earlier work
Serum stability assay = type: in vitro ADME; details: 37 °C, within 90 min
Method: Human serum was obtained from human male AB plasma, USA origin, sterile-filtered (Sigma-Aldrich, St. Louis, MO, USA).
The tracer formulation was mixed with an equal volume of human serum (250 μL) and incubated into a thermo-shaker at 37 °C, 300 rpm. At different time points (0, 15, 30, 60, and 90 min), 70 μL samples were drawn and mixed with ice-cold acetonitrile (1:1 dilution) and quickly vortexed. The dilute sample was incubated for 2 min on ice and centrifuged (MiniSpin centrifuge, Eppendorf) for 2 min at 13,400 rpm. An aliquot of the supernatant (120 μL) was analyzed by analytical radio-HPLC on a Luna C18(2), 5 μm, 250 × 4.6 mm column with 35% ACN in 0.1% aqueous TFA as mobile phase and at a flow rate of 1.5 mL/min in 10 min. The radiolabeled product was eluted at a retention time of 5.9 ± 0.2 min (Figure S5).

[3] = In vivo PET/MR imaging in healthy wild-type mice; design: species or system mice (C57BL/6J); details: iv
Method: To assess the pharmacokinetic profile of [^11C]APT-13 in vivo, wild-type mice (n = 3) were iv injected, and the organ distribution was assessed over 60 min with dynamic PET and anatomical MR imaging (Figure 7A). […] Tracer clearance was largest through the liver (SUV ≈ 5), and high uptake was also observed in the heart (SUV ≈ 6) and lungs (SUV ≈ 5). Uptake with fast clearance was also observed in the kidney, indicating renal excretion within the first few minutes (Figure 7C).
To evaluate the pharmacokinetics of [^11C]APT-13, PET and subsequent MRI scans were performed in healthy mice (female, 21 weeks old, C57BL/6J) to determine brain uptake and washout as well as organ uptake of the liver, lungs, heart, kidneys, and brain. Scans were performed in a small animal Inveon PET scanner (Siemens Healthcare, Erlangen, Germany) and a 7T small animal MRI scanner (Bruker BioSpin GmbH, Ettlingen, Germany). The mice (n = 3) were anesthetized with 1.5% isoflurane evaporated in 100% oxygen at a flow of 0.8 L/min, and a catheter was placed in the tail vein. The body temperature was kept at 37 °C by using a feedback temperature control unit for a heat pump that was connected to the PET bed. Five seconds after the start of the PET acquisition, 15.2 ± 0.5 MBq (410 ± 13 μCi) of [^11C]APT-13 was injected intravenously. PET data were acquired in a dynamic scan for 60 min plus an extra 13 min of transmission measurement with a ^57Co-source for attenuation correction. Subsequently, mice were placed in the same bed position in the MRI, and an anatomical scan was performed using a Turbo RARE T2 sequence. For analysis, the 60 min of acquired PET data were divided into 39-time frames (12 × 5, 6 × 10, 6 × 30, 5 × 60, and 10 × 300 s) and reconstructed using the OSEM3D reconstruction algorithm. The PET scans were coregistered to the whole-body MRI scan using PMOD software (version 4.203; PMOD Technologies, Zürich, Switzerland), and the volume of interest (VOI) of the different organs (liver, lungs, heart, kidney, and brain) were hand-drawn according to the anatomical localization. VOI were selected from the mouse brain atlas in PMOD, time activity curves were extracted, and SUV were calculated by normalizing to the injected activity and animal weight.

[4] = LogD determination (octanol/PBS); type: physicochemical; details: n = 3
Method: The logD was calculated experimentally by adding [^11C]APT-13 (1.5 MBq) to a 1.5 mL Eppendorf vial containing 500 μL of octanol (OCT) and 500 μL of PBS. The vial was vigorously vortexed and then, to achieve effective phase separation, centrifuged. Aliquots of 350 μL were collected from both OCT and PBS phases. The OCT sample was further washed with 350 μL of PBS; the phases mixture was shaken and centrifuged, and 200 μL of both phases were taken into new reaction tubes. The amount of radioactivity in each sample was quantified using a γ-counter. The log OCT/PBS values were calculated from the mean of n = 3 determinations (Table S3).
Table S3. Results from LogD determination assay.
C-11 CPM Description Mean value Mean value * dil

T1 sequence (P05067 672-713): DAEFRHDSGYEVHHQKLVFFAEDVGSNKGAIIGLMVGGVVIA

Cn1nc(-c2ccc3c(c2)OCO3)cc1-c1nccs1 [APT-8, 2-(3-(Benzo[d][1,3]dioxol-5-yl)-1-methyl-1H-pyrazol-5-yl)thiazole]
Ki [1]: > 14.2 µM

c1coc(-c2cc(-c3ccc4c(c3)OCO4)n[nH]2)n1 [APT-2, 2-(3-(Benzo[d][1,3]dioxol-5-yl)-1H-pyrazol-5-yl)oxazole]
Ki [1]: 0.134 µM

CNc1ccc(/C=C/C(=O)c2nc(Br)cs2)cc1 [APT-12, (E)-1-(4-Bromothiazol-2-yl)-3-(4-(methylamino)phenyl)prop-2-en-1-one]
Ki [1]: 0.198 ± 0.142 µM
Ki [2]: 0.587 µM

Brc1cnc(-c2cc(-c3ccc4c(c3)OCO4)n[nH]2)s1 [APT-9, 2-(3-(Benzo[d][1,3]dioxol-5-yl)-1H-pyrazol-5-yl)-5-bromothiazole]
Ki [1]: 0.187 µM
binding affinity to α-syn fibrils (in words) [1]: poor binding
Ki [2]: 0.23 µM

O=C(/C=C/C=C/C=C/c1ccc([N+](=O)[O-])cc1)c1ccc(OCC(O)CF)cc1 (centres unmarked) [FHCL-2]
Ki (α-synuclein aggregates): 0.0034 ± 0.0001 µM
Ki Aβ1-42 (Aβ1-42): no competition

Cn1nc(-c2ccc3c(c2)OCO3)cc1-c1nc(Br)cs1 [APT-14, 2-(3-(Benzo[d][1,3]dioxol-5-yl)-1-methyl-1H-pyrazol-5-yl)-4-bromothiazole]
binding affinity to α-syn fibrils (in words) [1]: loss of competition

CNc1ccc(-c2cc(-c3nc(Br)cs3)[nH]n2)cc1 [APT-13, 4-(5-(4-Bromothiazol-2-yl)-1H-pyrazol-3-yl)-N-methylaniline]
Ki [1]: 0.0278 ± 0.0097 µM
Ki [2]: 0.0926 ± 0.0488 µM

CNc1ccc(-c2cc(-c3nccs3)[nH]n2)cc1 [APT-7, N-Methyl-4-(5-(thiazol-2-yl)-1H-pyrazol-3-yl)aniline]
Ki [1]: 0.045 µM and 0.0445 µM
selectivity for α-syn over Aβ [1]: > 20 fold
Ki [2]: 0.381 ± 0.217 µM

FCCNc1ccc(-c2cc(-c3nccs3)[nH]n2)cc1 [APT-6, N-(2-Fluoroethyl)-4-(5-(thiazol-2-yl)-1H-pyrazol-3-yl)aniline]
Ki [1]: 0.184 µM
binding affinity to α-syn fibrils (in words) [1]: modest affinity

CN(C)c1ccc(-c2cc(-c3ccnc(Br)c3)[nH]n2)cc1 [MODAG-001]
Kd (Aβ1-42 fibrils): 0.02 ± 0.01 µM
Kd (α-syn fibrils): 0.0006 ± 0.0001 µM

Brc1csc(-c2cc(-c3ccc4c(c3)OCO4)n[nH]2)n1 [APT-4, 2-(3-(Benzo[d][1,3]dioxol-5-yl)-1H-pyrazol-5-yl)-4-bromothiazole]
Ki [1]: 0.05 µM and 0.0497 µM
selectivity for α-syn over Aβ [1]: > 8 fold
Ki [2]: 1.03 ± 0.562 µM

O=C(/C=C/c1ccc2c(c1)OCO2)c1nccs1 [APT-3, (E)-3-(Benzo[d][1,3]dioxol-5-yl)-1-(thiazol-2-yl)prop-2-en-1-one]
Ki [1]: > 0.894 µM

Fc1csc(-c2cc(-c3ccc4c(c3)OCO4)n[nH]2)n1 [APT-10, 2-(3-(Benzo[d][1,3]dioxol-5-yl)-1H-pyrazol-5-yl)-4-fluorothiazole]
Ki [1]: 0.8184 ± 0.0018 µM

CNc1ccc(/C=C/C(=O)c2nccs2)cc1 [APT-11, (E)-3-(4-(Methylamino)phenyl)-1-(thiazol-2-yl)prop-2-en-1-one]
Ki [1]: 1.01 ± 0.034 µM
Ki [2]: 0.377 µM

Fc1ccc(-c2csc(-c3nc(-c4cnc5c(c4)OCO5)cs3)n2)cn1 [d8]
Ki (α-synuclein aggregates): 0.0001 µM
Ki (Aβ1-42): 0.386 µM

[11CH3]Nc1ccc(-c2cc(-c3nc(Br)cs3)[nH]n2)cc1 [[^11C]APT-13]
stability in human serum (Serum stability assay): did not show evidence of degradation
SUV heart ([3]; n = 3): ≈ 6
SUV liver ([3]; n = 3): ≈ 5
SUV lungs ([3]; n = 3): ≈ 5
peak SUV in brain ([3]; n = 3, dynamic PET 60 min): 1.94 ± 0.29
logD [4]: 3.16

c1csc(-c2cc(-c3ccc4c(c3)OCO4)n[nH]2)n1 [APT-1, 2-(3-(Benzo[d][1,3]dioxol-5-yl)-1H-pyrazol-5-yl)thiazole]
Ki [1]: 0.145 ± 0.046 µM
binding affinity to α-syn fibrils (in words) [1]: moderate affinity
Ki [2]: 0.561 µM
binding to Aβ fibrils (in words) ([2]; competition against [3H]MODAG-001): significantly lower binding

CN(C)c1ccc(-c2cc(-c3nccs3)[nH]n2)cc1 [APT-5, N,N-Dimethyl-4-(5-(thiazol-2-yl)-1H-pyrazol-3-yl)aniline]
Ki [1]: 0.217 µM

COc1ccc(/C=C/c2cc(-c3nccs3)on2)cc1 [11b]
Ki (α-synuclein aggregates): 0.0185 ± 0.0092 µM
Ki (Aβ1-42): 0.0915 ± 0.0587 µM
